Measured values: patent publication US20260151410A1, “Tetrahydronaphthyridine Derivatives, Medicine Prepared Therefrom, and Applications Thereof in Preventing and Treating Adhesion-related Diseases” (SCINNOHUB PHARMACEUTICAL CO., LTD, priority 2022, published 2026)
Like-named read-outs stand apart in the source and are kept apart here.

Assays:
[1] = system: total proteases in the homogenate of the jejunal segment of the small intestine of rats; assay: Inhibition of total proteases in rat small intestine (jejunum) homogenate, fluorescent protease activity kit; type: biochemical; settings: ΔRFU within 30 minutes
Excerpt: The purpose is to determine the inhibitory activity of the compounds of the present disclosure on total proteases in the homogenate of the jejunal segment of the small intestine of rats.
• a) Preparation of rat intestinal homogenate and protein quantification • i. Tissue sampling: The experimental animals were anesthetized and bled to death. The small intestine was folded in half from the ileocecal junction to the duodenum at the lower end of the stomach, and the jejunum in the middle with a size of about 4 cm was taken; after washing with a 0.9% sodium chloride solution, it was quickly frozen in liquid nitrogen and then transferred to −80° C. for storage; • ii. […] The total protein of the homogenate was quantified using the BCA protein concentration assay kit according to the instructions. • b) Inhibitory activity test of compound • i. […]
• v. […] The fluorescence signals at FI=Ex 485/Em 520 nm were detected continuously within 30 minutes (once every 5 minutes) using a kinetic mode. • c) Data analysis
The difference between fluorescence signals within 30 minutes was calculated and recorded as ΔRFU. […]
The inhibitory effect of the compounds of the present disclosure on the total proteases in the rat small intestine homogenate was determined by the above test, and the measured IC50 values were as follows.

MMP9 = MMP9 (Homo sapiens, UniProt P14780); assay: Inhibition of recombinant human protease MMP9, fluorescence assay; type: biochemical
MMP9, sequence (P14780 94-707): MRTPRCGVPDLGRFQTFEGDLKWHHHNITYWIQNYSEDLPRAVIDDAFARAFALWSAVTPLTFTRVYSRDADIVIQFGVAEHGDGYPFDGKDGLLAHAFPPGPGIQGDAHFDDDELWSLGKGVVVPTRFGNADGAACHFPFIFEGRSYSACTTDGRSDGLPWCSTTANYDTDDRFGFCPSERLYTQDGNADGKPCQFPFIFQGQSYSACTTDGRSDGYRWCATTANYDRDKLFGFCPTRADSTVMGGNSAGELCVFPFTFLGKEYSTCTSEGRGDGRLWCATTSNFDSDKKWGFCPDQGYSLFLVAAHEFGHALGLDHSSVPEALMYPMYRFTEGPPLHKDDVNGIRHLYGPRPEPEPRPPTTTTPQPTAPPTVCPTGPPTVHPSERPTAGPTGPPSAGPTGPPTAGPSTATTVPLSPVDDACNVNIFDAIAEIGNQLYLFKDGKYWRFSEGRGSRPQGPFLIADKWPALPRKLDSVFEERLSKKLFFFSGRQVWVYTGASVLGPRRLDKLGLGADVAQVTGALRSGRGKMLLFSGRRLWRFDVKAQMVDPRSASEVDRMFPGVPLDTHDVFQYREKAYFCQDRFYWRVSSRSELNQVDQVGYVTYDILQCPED
Protocol: (§1) The purpose is to determine the inhibitory activity of the compounds of the present disclosure on recombinant human proteases Trypsin, MMP9, and TACE.
(§2) • Trypsin: 100 mM Tris-HCl, 75 mM NaCl, 2.5 mM CaCl2, 10 mM Cysteine, pH 7.5 • MMP9: 50 mM Tris, 10 mM CaCl2), 150 mM NaCl, 0.05% Brij-35 (w/v), pH7.5 • TACE: 25 mM Tris, 2.5 μM ZnCl2, 0.005% Brij-35 (w/v), pH 9.0 […]
(§3) The inhibitory effect of the compounds of the present disclosure on the above three proteases was determined by the above test, and the measured IC50 values were as follows.

TACE(ADAM17) = TACE(ADAM17) (Homo sapiens, UniProt P78536); assay: Inhibition of recombinant human protease TACE, fluorescence assay; type: biochemical
TACE(ADAM17), sequence (P78536 215-824): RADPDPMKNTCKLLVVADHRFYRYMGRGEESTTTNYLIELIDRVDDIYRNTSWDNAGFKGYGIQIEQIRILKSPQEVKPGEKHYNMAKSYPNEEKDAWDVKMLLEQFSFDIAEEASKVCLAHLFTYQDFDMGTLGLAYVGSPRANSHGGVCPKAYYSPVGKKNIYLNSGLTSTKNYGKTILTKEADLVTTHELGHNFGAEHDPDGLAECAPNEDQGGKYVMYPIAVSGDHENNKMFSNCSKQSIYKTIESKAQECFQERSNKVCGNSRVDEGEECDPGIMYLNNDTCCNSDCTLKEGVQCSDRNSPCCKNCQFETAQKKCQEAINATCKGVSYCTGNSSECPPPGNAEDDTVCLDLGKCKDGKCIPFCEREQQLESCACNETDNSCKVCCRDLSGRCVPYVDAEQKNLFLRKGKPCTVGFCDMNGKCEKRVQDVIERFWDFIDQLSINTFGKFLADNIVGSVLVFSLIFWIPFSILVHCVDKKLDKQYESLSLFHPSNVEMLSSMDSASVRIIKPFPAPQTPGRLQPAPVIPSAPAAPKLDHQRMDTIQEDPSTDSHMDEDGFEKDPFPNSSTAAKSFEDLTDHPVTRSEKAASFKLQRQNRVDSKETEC
Protocol: as §1, §2, §3

[2] = system: postoperative intra-abdominal adhesions; settings: for extent (and locations) of intra-abdominal adhesions compared with the model group: rats, single gavage 12 mL/kg 2 hours before operation, 7 days after operation
Protocol: Seventy male SPF SD rats, 220±20 g each, were purchased from Beijing Vital River Experimental Animal Technology Co., Ltd. After 2 weeks of adaptive feeding in the laboratory, the animals were numbered by ear tags and randomized into 7 groups, with […] in each group.
The positive drug was tranexamic acid (TXA).
An amount of the positive drug tranexamic acid (TXA) was weighed and added with the electrolyte solution to prepare 64 mM and 21 mM solutions.
The animals were given a single dose at 12 mL/kg by oral gavage 2 hours before the laparotomy operation. The animals in the sham operation group and the model group were given the solvents.
The animals were fasted but water was given before the operation (>12 hours). The abdomen was locally depilated after inhalation anesthesia and disinfected with iodophor solution. An incision with the size of 3 cm was made in the midline area of the abdomen of the experimental animal using a scalpel, and the cecum was taken out. The serosal layer on each side of the ileocecal region was repeatedly rubbed with sterile gauze until there were needle-like bleeding points on the surface, forming a damaged wound inside and outside of the cecum. The cecum was returned back to the abdominal cavity. The abdominal cavity was closed, sutured layer by layer with surgical sutures, and disinfected. The entire operation should be performed aseptically. The experimental operations were carried out for 4 animals in each group. In the sham operation group, the animal's abdomens were opened only without damaging the cecum.
The animals were dissected and observed 7 days after the operation.
The intestinal adhesions were scored using the Phillips grading method.

[3] = system: postoperative intestinal adhesions; assay: Abdominal adhesion model by the file method (cecal friction), Phillips grading; type: in vivo, SD rats; settings: rats; gavage 2% solution 12 mL/kg 2 hours before operation + peritoneal irrigation 1% solution 2 mL/animal; 7th day after operation
Excerpt: • 3.1 Experimental animals: The male SPF SD rats (220 g each) were purchased from the Experimental Animal Center of Hangzhou Medical College and passed the inspection of Zhejiang Provincial Experimental Animal Quality Supervision and Inspection Station. […] The solvent used for intragastric administration was compound polyethylene glycol electrolyte solution; the solvent used for irrigation administration was sterile saline solution. • 3.3 Preparation of solvent: One bag of compound polyethylene glycol electrolyte solution (68.56 g) was dissolved in 1 L of pure water, and is further added with 44 g of glucose (containing water) to make the glucose content of 4% (w/v) in the solvent. The prepared solvent was stored at 2-8° C. and used within one week. • 3.4 Preparation of intragastric solution: An amount of test sample was weighed and added with an appropriate amount of sterile ultrapure water to prepare a 20% (w/v) stock solution, then an equivalent amount of NaOH was added to adjust the pH to neutral until completely dissolved (the pH value was measured). […]

Row | SMILES | IC50 [1] [mM] | IC50 (MMP9; recombinant human MMP9 0.2 μg/mL, substrate 10 μM, room temperature 30 minutes, read-out: IC50 MMP9) [mM] | IC50 (TACE(ADAM17); recombinant human TACE 0.2 μg/mL, substrate 20 μM, room temperature 30 minutes, read-out: IC50 TACE(ADAM17)) [mM] | extent (and locations) of intra-abdominal adhesions compared with the model group ([2]; 21 mM solution) | extent (and locations) of intra-abdominal adhesions compared with the model group ([2]; 64 mM solution) | IC50 (MMP9) [mM] | IC50 (TACE(ADAM17)) [mM] | animals with quantity and extent of intestinal adhesions significantly improved compared with the model group [3] | animal deaths after the operation ([2]; rat, in vivo)
1 | Cl.O=C(O)c1ccc2c(n1)CCNC2 [Preparative example 1, 5,6,7,8-tetrahydro-1,6-naphthyridine-2-carboxylic acid hydrochloride] | 13.4 | 6.56 | 5.43 | reduced | reduced significantly |  |  |  | 
2 | Cl.O=P(O)(O)c1ccc2c(n1)CCNC2 [Preparative example 2, (5,6,7,8-tetrahydro-1,6-naphthyridin-2-yl) phosphonic acid hydrochloride] | 17.9 |  |  |  | improved to a certain extent | ~25 | 7.38 | more than 80% | 
3 | NC[C@H]1CC[C@H](C(=O)O)CC1 [tranexamic acid, reference compound] |  |  |  | exhibited an alleviating trend | significantly alleviated |  |  |  | one animal died
